According to ChEMBL document CHEMBL3885881, “DrugMatrix”:

Species: Rattus norvegicus
Test: DrugMatrix - Regimen: Daily Repeat
Format: toxicity, organism-based, Sprague-Dawley
Parameters: regimen Daily Repeat, gender Male, age 6-8 weeks
Details: in vivo, po, route oral GAVAGE, vehicle 100 % WATER; for ABSOLUTE BASOPHIL / ABSOLUTE EOSINOPHIL / ABSOLUTE LYMPHOCYTE / ABSOLUTE MONOCYTE / ABSOLUTE SEGMENTED NEUTROPHIL / BASOPHIL / EOSINOPHIL / ERYTHROCYTE COUNT / HEMATOCRIT / HEMOGLOBIN / LEUKOCYTE COUNT / LYMPHOCYTE / MEAN CORPUSCULAR HEMOGLOBIN / MEAN CORPUSCULAR HEMOGLOBIN CONCENTRATION / MEAN CORPUSCULAR VOLUME / MONOCYTE / NEUTROPHIL / NUCLEATED RED BLOOD CELLS / PLATELET COUNT: tissue Blood; for ALANINE AMINOTRANSFERASE / ALBUMIN / ALKALINE PHOSPHATASE / ASPARTATE AMINOTRANSFERASE / BLOOD UREA NITROGEN / CARBON DIOXIDE / CHLORIDE / CHOLESTEROL / CREATINE PHOSPHOKINASE / CREATININE / GLUCOSE / LACTATE DEHYDROGENASE / LIPASE / PHOSPHORUS / POTASSIUM / SODIUM / TOTAL BILIRUBIN / TOTAL PROTEIN / URIC ACID: tissue Plasma
[1] = 0 mg/kg, 72 h, dose level Control, time 3 day
[2] = 0 mg/kg, 120 h, dose level Control, time 5 day
[3] = 60 mg/kg, 72 h, dose level Low, time 3 day

CC(C)C[C@H](NC(=O)[C@@H](O)[C@H](N)Cc1ccccc1)C(=O)O [UBENIMEX]
ABSOLUTE BASOPHIL [1]: 0 CELLS/uL | ABSOLUTE EOSINOPHIL [1]: 168.33 CELLS/uL | ABSOLUTE LYMPHOCYTE [1]: 13654.17 CELLS/uL | ABSOLUTE MONOCYTE [1]: 121 CELLS/uL | ABSOLUTE SEGMENTED NEUTROPHIL [1]: 1223.17 CELLS/uL | BASOPHIL [1]: 0% | EOSINOPHIL [1]: 1.17% | ERYTHROCYTE COUNT [1]: 5.7 x10E6/uL | HEMATOCRIT [1]: 35.33% | HEMOGLOBIN [1]: 13.97 G/DL | LEUKOCYTE COUNT [1]: 15.17 x10E3/uL | LYMPHOCYTE [1]: 89.83% | MEAN CORPUSCULAR HEMOGLOBIN [1]: 24.53 pg | MEAN CORPUSCULAR HEMOGLOBIN CONCENTRATION [1]: 39.53 G/DL | MEAN CORPUSCULAR VOLUME [1]: 62.05 fL | MONOCYTE [1]: 0.83% | NEUTROPHIL [1]: 8.17% | NUCLEATED RED BLOOD CELLS [1]: 0 /100WBC | PLATELET COUNT [1]: 1312.17 x10E3/uL | ALANINE AMINOTRANSFERASE [1]: 50.83 u/L | ALBUMIN [1]: 4.18 G/DL | ALKALINE PHOSPHATASE [1]: 334.17 u/L | ASPARTATE AMINOTRANSFERASE [1]: 82.17 u/L | BLOOD UREA NITROGEN [1]: 15.5 mg/dL | CARBON DIOXIDE [1]: 31.33 mmol/L | CHLORIDE [1]: 99.83 MEQ/L | CHOLESTEROL [1]: 76 mg/dL | CREATINE PHOSPHOKINASE [1]: 272.17 u/L | CREATININE [1]: 0.17 mg/dL | GLUCOSE [1]: 143 mg/dL | LACTATE DEHYDROGENASE [1]: 157.5 u/L | LIPASE [1]: 9.33 u/L | PHOSPHORUS [1]: 12.18 mg/dL | POTASSIUM [1]: 6.78 MEQ/L | SODIUM [1]: 143.9 MEQ/L | TOTAL BILIRUBIN [1]: 0.22 mg/dL | TOTAL PROTEIN [1]: 5.85 G/DL | URIC ACID [1]: 1.7 mg/dL | ABSOLUTE BASOPHIL [2]: 0 CELLS/uL | ABSOLUTE EOSINOPHIL [2]: 0 CELLS/uL | ABSOLUTE LYMPHOCYTE [2]: 13539.33 CELLS/uL | ABSOLUTE MONOCYTE [2]: 177.67 CELLS/uL | ABSOLUTE SEGMENTED NEUTROPHIL [2]: 2116.33 CELLS/uL | BASOPHIL [2]: 0% | EOSINOPHIL [2]: 0% | ERYTHROCYTE COUNT [2]: 5.78 x10E6/uL | HEMATOCRIT [2]: 36.13% | HEMOGLOBIN [2]: 14.1 G/DL | LEUKOCYTE COUNT [2]: 15.83 x10E3/uL | LYMPHOCYTE [2]: 85.83% | MEAN CORPUSCULAR HEMOGLOBIN [2]: 24.42 pg | MEAN CORPUSCULAR HEMOGLOBIN CONCENTRATION [2]: 39 G/DL | MEAN CORPUSCULAR VOLUME [2]: 62.55 fL | MONOCYTE [2]: 0.83% | NEUTROPHIL [2]: 13.33% | NUCLEATED RED BLOOD CELLS [2]: 0.17 /100WBC | PLATELET COUNT [2]: 1281.17 x10E3/uL | ALANINE AMINOTRANSFERASE [2]: 55.5 u/L | ALBUMIN [2]: 4.22 G/DL | ALKALINE PHOSPHATASE [2]: 345 u/L | ASPARTATE AMINOTRANSFERASE [2]: 92.5 u/L | BLOOD UREA NITROGEN [2]: 16.5 mg/dL | CARBON DIOXIDE [2]: 26.5 mmol/L | CHLORIDE [2]: 103.5 MEQ/L | CHOLESTEROL [2]: 78.5 mg/dL | CREATINE PHOSPHOKINASE [2]: 381.5 u/L | CREATININE [2]: 0.21 mg/dL | GLUCOSE [2]: 161.83 mg/dL | LACTATE DEHYDROGENASE [2]: 487.5 u/L | LIPASE [2]: 10.17 u/L | PHOSPHORUS [2]: 11.83 mg/dL | POTASSIUM [2]: 6.4 MEQ/L | SODIUM [2]: 146.95 MEQ/L | TOTAL BILIRUBIN [2]: 0.22 mg/dL | TOTAL PROTEIN [2]: 6.22 G/DL | URIC ACID [2]: 1.83 mg/dL | ABSOLUTE BASOPHIL [3]: 0 CELLS/uL | ABSOLUTE EOSINOPHIL [3]: 99.33 CELLS/uL | ABSOLUTE LYMPHOCYTE [3]: 13954.33 CELLS/uL | ABSOLUTE MONOCYTE [3]: 91 CELLS/uL | ABSOLUTE SEGMENTED NEUTROPHIL [3]: 1655.33 CELLS/uL | BASOPHIL [3]: 0% | EOSINOPHIL [3]: 0.67% | ERYTHROCYTE COUNT [3]: 5.56 x10E6/uL | HEMATOCRIT [3]: 33.13% | HEMOGLOBIN [3]: 12.97 G/DL | LEUKOCYTE COUNT [3]: 15.8 x10E3/uL | LYMPHOCYTE [3]: 88.33% | MEAN CORPUSCULAR HEMOGLOBIN [3]: 23.33 pg | MEAN CORPUSCULAR HEMOGLOBIN CONCENTRATION [3]: 39.17 G/DL | MEAN CORPUSCULAR VOLUME [3]: 59.53 fL | MONOCYTE [3]: 0.67% | NEUTROPHIL [3]: 10.33% | NUCLEATED RED BLOOD CELLS [3]: 0 /100WBC | PLATELET COUNT [3]: 1252.67 x10E3/uL | ALANINE AMINOTRANSFERASE [3]: 58 u/L | ALBUMIN [3]: 4.13 G/DL | ALKALINE PHOSPHATASE [3]: 310.67 u/L | ASPARTATE AMINOTRANSFERASE [3]: 96.67 u/L | BLOOD UREA NITROGEN [3]: 15.67 mg/dL | CARBON DIOXIDE [3]: 29.33 mmol/L | CHLORIDE [3]: 100 MEQ/L | CHOLESTEROL [3]: 80 mg/dL | CREATINE PHOSPHOKINASE [3]: 475.33 u/L | CREATININE [3]: 0.2 mg/dL | GLUCOSE [3]: 142 mg/dL | LACTATE DEHYDROGENASE [3]: 612.67 u/L | LIPASE [3]: 9.67 u/L | PHOSPHORUS [3]: 11.07 mg/dL | POTASSIUM [3]: 6.61 MEQ/L | SODIUM [3]: 143.5 MEQ/L | TOTAL BILIRUBIN [3]: 0.17 mg/dL | TOTAL PROTEIN [3]: 5.8 G/DL | URIC ACID [3]: 1.47 mg/dL
